Results reported in the NIST ThermoML archive (doi:10.1021/je034102r).
Numbers after ± are expanded uncertainties.

Assay: molar heat capacity at constant pressure
Details: 101.33 kPa, Liquid, heat bridge-scanning calorimeter

CCCCn1cc[n+](C)c1.F[P-](F)(F)(F)(F)F [1-butyl-3-methylimidazolium hexafluorophosphate]
Details	molar heat capacity at constant pressure [J/K/mol]
495.63 K	502.43 ± 9.9
495.77 K	502.43 ± 9.9
495.91 K	502.43 ± 9.9
496.05 K	502.72 ± 9.9
496.18 K	503.86 ± 9.9
496.32 K	504.14 ± 9.9
496.46 K	504.14 ± 9.9
496.6 K	503.29 ± 9.9
496.9 K	505.56 ± 10
497.04 K	506.13 ± 10
497.17 K	506.13 ± 10
497.31 K	504.99 ± 10
497.45 K	504.42 ± 10
497.58 K	504.14 ± 9.9
497.72 K	503.57 ± 9.9
497.86 K	503.57 ± 9.9
498 K	503.57 ± 9.9
498.13 K	503.29 ± 9.9
498.27 K	503.86 ± 9.9
498.57 K	504.71 ± 10
498.7 K	504.42 ± 10
498.84 K	505.84 ± 10
498.98 K	507.27 ± 10
499.11 K	506.98 ± 10
499.25 K	505.84 ± 10
499.39 K	504.99 ± 10
499.52 K	504.71 ± 10
499.66 K	504.42 ± 10
499.96 K	504.14 ± 9.9
500.1 K	504.42 ± 10
500.24 K	504.42 ± 10
500.37 K	504.42 ± 10
500.51 K	504.71 ± 10
500.65 K	505.56 ± 10
500.79 K	506.13 ± 10
500.92 K	506.41 ± 10
501.06 K	506.13 ± 10
501.2 K	506.41 ± 10
501.34 K	506.7 ± 10
501.63 K	505.84 ± 10
501.78 K	506.98 ± 10
501.92 K	507.55 ± 10
502.06 K	506.41 ± 10
502.19 K	505.84 ± 10
502.33 K	505.56 ± 10
502.47 K	505.28 ± 10
502.61 K	504.99 ± 10
502.74 K	505.28 ± 10
503.05 K	505.28 ± 10
503.18 K	504.99 ± 10
503.32 K	505.28 ± 10
503.46 K	505.28 ± 10
503.59 K	505.28 ± 10
503.73 K	505.84 ± 10
503.87 K	505.84 ± 10
504.01 K	505.84 ± 10
504.14 K	506.13 ± 10
504.28 K	507.55 ± 10
504.42 K	505.84 ± 10
504.71 K	505.84 ± 10
504.85 K	505.84 ± 10
504.99 K	506.13 ± 10
505.13 K	506.41 ± 10
505.26 K	506.7 ± 10
505.4 K	506.41 ± 10
505.54 K	506.98 ± 10
505.68 K	506.98 ± 10
505.81 K	505.84 ± 10
506.11 K	505.84 ± 10
506.25 K	506.13 ± 10
506.39 K	507.83 ± 10
506.53 K	507.27 ± 10
506.66 K	506.98 ± 10
506.8 K	506.98 ± 10
506.94 K	506.41 ± 10
507.08 K	506.13 ± 10
507.21 K	506.13 ± 10
507.35 K	506.7 ± 10
507.49 K	506.98 ± 10
507.78 K	507.27 ± 10
507.92 K	508.12 ± 10
508.06 K	508.12 ± 10
508.21 K	508.12 ± 10
508.35 K	507.27 ± 10
508.48 K	506.98 ± 10
508.62 K	506.98 ± 10
508.76 K	506.98 ± 10
508.9 K	507.27 ± 10
509.2 K	506.7 ± 10
509.33 K	506.98 ± 10
509.47 K	507.83 ± 10
509.61 K	508.69 ± 10
509.75 K	509.25 ± 10
509.88 K	509.25 ± 10
510.02 K	507.55 ± 10
510.16 K	506.7 ± 10
510.29 K	506.13 ± 10
510.43 K	506.7 ± 10
510.57 K	507.55 ± 10
510.86 K	507.83 ± 10
511 K	507.27 ± 10
511.14 K	506.7 ± 10
511.28 K	506.41 ± 10
511.41 K	505.84 ± 10
511.55 K	506.41 ± 10
511.69 K	507.27 ± 10
511.83 K	506.98 ± 10
511.96 K	506.41 ± 10
512.26 K	506.7 ± 10
512.4 K	507.27 ± 10
512.54 K	507.55 ± 10
512.68 K	507.55 ± 10
512.81 K	507.55 ± 10
512.95 K	506.98 ± 10
513.09 K	506.7 ± 10
513.23 K	506.98 ± 10
513.36 K	506.98 ± 10
513.5 K	506.7 ± 10
513.64 K	506.41 ± 10
513.93 K	506.13 ± 10
514.07 K	506.13 ± 10
514.21 K	506.13 ± 10
514.35 K	506.41 ± 10
514.48 K	507.27 ± 10
514.62 K	507.83 ± 10
514.77 K	507.83 ± 10
514.91 K	507.27 ± 10
515.05 K	506.98 ± 10
515.35 K	507.55 ± 10
515.49 K	507.55 ± 10
515.62 K	506.98 ± 10
515.76 K	506.98 ± 10
515.9 K	506.98 ± 10
516.04 K	507.27 ± 10
516.18 K	507.27 ± 10
516.31 K	506.98 ± 10
516.45 K	506.98 ± 10
516.59 K	506.98 ± 10
516.73 K	506.7 ± 10
517.03 K	507.27 ± 10
517.16 K	506.98 ± 10
517.3 K	507.27 ± 10
517.44 K	506.98 ± 10
517.58 K	506.98 ± 10
517.71 K	507.27 ± 10
517.85 K	506.98 ± 10
517.99 K	506.98 ± 10
518.13 K	507.27 ± 10
518.43 K	508.97 ± 10
518.57 K	508.12 ± 10
518.71 K	507.83 ± 10
518.85 K	507.55 ± 10
518.98 K	507.83 ± 10
519.12 K	508.12 ± 10
519.26 K	508.4 ± 10
519.4 K	508.4 ± 10
519.53 K	508.4 ± 10
519.67 K	508.12 ± 10
519.81 K	508.12 ± 10
520.11 K	508.12 ± 10
520.24 K	508.4 ± 10
520.38 K	508.97 ± 10
520.52 K	508.97 ± 10
520.66 K	509.25 ± 10
520.79 K	509.54 ± 10
520.93 K	509.54 ± 10
521.07 K	509.25 ± 10
521.22 K	508.97 ± 10
521.52 K	509.25 ± 10
521.66 K	509.25 ± 10
521.8 K	509.25 ± 10
521.94 K	509.25 ± 10
522.07 K	509.25 ± 10
522.21 K	509.54 ± 10
522.35 K	509.82 ± 10
522.49 K	510.39 ± 10
522.62 K	510.39 ± 10
522.76 K	510.11 ± 10
522.9 K	510.11 ± 10
523.2 K	510.11 ± 10
523.33 K	509.82 ± 10
523.47 K	509.82 ± 10
523.61 K	509.82 ± 10
523.75 K	509.82 ± 10
523.88 K	510.11 ± 10
524.02 K	510.39 ± 10
524.16 K	510.11 ± 10
524.3 K	509.82 ± 10
524.6 K	509.82 ± 10
524.74 K	510.11 ± 10
524.87 K	510.11 ± 10
